Data taken from patent publication US20080039471A1, “Composition and method to inhibit tissue plasminogen activator (tPA) - potentiated neurotoxicity” (priority 2006, published 2008).

Tests used:
[1] = system: embryonic (E18) rat cortical and striatal neurons; assay: Morphological changes, H/H and tPA insult (Example 2); type: cell-based
Description: (§1) A mixed culture of embryonic (E18) rat cortical and striatal neurons was cultured for 13 days in neurobasal medium (Invitrogen), then insulted by hypoglycemia/hypoxia (H/H) conditions for 6 hours, or a combination of H/H and 20 μg/ml tPA. The H/H conditions were 1.2 mM glucose (normally 25 mM in culture medium) and the absence of oxygen for 6 hours. (Following H/H conditions, the cultures were returned to the typical conditions of 25 mM glucose medium and 95% ambient air plus 5% CO2.)
(§2) In a further experiment, cells that were under H/H conditions and also treated with the tPA were divided into groups, which were either co-treated or post-treated (i.e., during or after the 6 hour insult period) with control vehicle or each of PAN-811 at concentrations of 1.25, 2.5, 5 and 10 μM.
The experimental results were evaluated by morphological changes, and LDH and MTS analyses.

[2] = system: embryonic (E18) rat cortical and striatal neurons; assay: LDH assay, glutamate / tPA insult (Example 1); type: cell-based
Description: For this example PAN-811 was dissolved in PEG:EtOH (7:3) to a concentration of 25 mM, and further diluted in neurobasal medium to a final concentration of 2 μM. The control vehicle is 1:12,500 PEG:EtOH (7:3 in BSS).
(§3) A mixed culture of embryonic (E18) rat cortical and striatal neurons was cultured for 22 days in 50% antioxidative (AO) neurobasal medium (made by replacing 50% of the neurobasal culture medium with a medium comprised of neurobasal plus B27 supplement (minus AO, i.e., without the antioxidants vitamin E, vitamin E acetate, 2.5 mg/L superoxide dismutase, 2.5 mg/L catalase, and 1 mg/L glutathione) (from Invitrogen)), and then divided into test groups in accordance with the following scheme: (1) not insulted (control); (2) insulted with 15 μM glutamate; (3) insulted with 20 μg/ml tPA; or (4) insulted with both 15 μM glutamate and 20 μg/ml tPA, for a period of 24 hours. In a further test category, neurons that were to be insulted for 24 hours with the combination of 15 μM glutamate and 20 μg/ml tPA, were divided into groups in which (1) cells were not pre-treated prior to insult; (2) were pretreated overnight with 1:12,500 vehicle (used for PAN-811), or (3) were pre-treated overnight with PAN-811 (in vehicle).
(§4) The lactate dehydrogenase (LDH) assay (Promega) is based on the reduction of NAD by the action of LDH. The resulting reduced NAD (NADH) is utilized in the stoichiometric conversion of a tetrazolium dye. If cell-free aliquots of medium from cultures given different treatments are assayed, then the amount of LDH activity can be used as an indicator of relative cell death as well as a function of membrane integrity. A 50 μl aliquot of culture medium from a well in tested 96-well plate is transferred into a well in unused plate and supplemented with 25 μl of equally-mixed Substrate, Enzyme and Dye Solutions (Sigma). The preparation is incubated at room temperature for 20-30 minutes, and then measured spectrophotometrically at wavelength of 490 nm.

[3] = single 2-h infusion every 4 weeks, cited from earlier work
[4] = systematic administration (Jiang et al.); cited from earlier work
[5] = system: embryonic (E18) rat cortical and striatal neurons; assay: LDH assay, hypoglycemia/hypoxia (H/H) and tPA insult (Example 2); type: cell-based
Description: as §4
In this example, PAN-811 was dissolved in PEG:EtOH (7:3) to a concentration of 25 mM, and further diluted in neurobasal medium to final concentrations of 1.25, 2.5, 5 and 10 μM. The control vehicle is 1:10,000 PEG:EtOH (7:3 in BSS).
as §1, §2

[6] = system: tPA-potentiated, NMDA-mediated, excitotoxic neuronal death; settings: cited from earlier work
[7] = system: embryonic (E18) rat cortical and striatal neurons; assay: Morphological changes, glutamate / tPA insult (Example 1); type: cell-based; settings: 15 μM glutamate, 20 μg/ml tPA, insult 24 hours
Description: as §3
The experimental results were evaluated by morphological changes, lactate dehydrogenase (LDH) and MTS (mitochondrial function) analyses.

[8] = system: embryonic (E18) rat cortical and striatal neurons; assay: MTS (mitochondrial function) assay, glutamate / tPA insult (Example 1); type: cell-based; settings: 15 μM glutamate, 20 μg/ml tPA, insult 24 hours
Description: as §3, with “In a further test category, neurons that were to be insulted for 24 hours with the combination of 15 μM glutamate and 20 μg/ml tPA, were divided into groups in which (1) cells were not pre-treated prior to insult; (2) were pretreated overnight with 1:12,500 vehicle (used for PAN-811), or (3) were pre-treated overnight with PAN-811 (in vehicle).” left out
The 3-(4,5-dimethylthiazol-2-yl)-5-(3-carboxymethoxyphenyl)-2-(4-sulfophenyl)-2H-tetrazolium (MTS) assay (Promega) is routinely used to evaluate mitochondrial function, and reduced readings are correlated with neuronal cell death. The MTS tetrazolium compound is reduced in metabolically active mitochondria into a colored formazan product that is soluble in tissue culture medium, and can be detected via its absorbance 490 nm. […] The absorbance at 490 nm was recorded using a Bio-Rad 96 well plate reader.

[9] = system: embryonic (E18) rat cortical and striatal neurons; assay: MTS assay, H/H and tPA insult (Example 2); type: cell-based; settings: H/H 6 hours combined with 20 μg/ml tPA
Description: The 3-(4,5-dimethylthiazol-2-yl)-5-(3-carboxymethoxyphenyl)-2-(4-sulfophenyl)-2H-tetrazolium (MTS) assay (Promega) is routinely used to evaluate mitochondrial function, and reduced readings are correlated with neuronal cell death. The MTS tetrazolium compound is reduced in metabolically active mitochondria into a colored formazan product that is soluble in tissue culture medium, and can be detected via its absorbance 490 nm. 10 μl of MTS reagent (Promega) are added to each well of the 96 well assay plates containing the samples in 50 μl of culture medium. The plate is then incubated in a humidified, 5% CO2 atmosphere at 37° C. for 1-2 hours until the color is fully developed. The absorbance at 490 nm was recorded using a Bio-Rad 96 well plate reader.
as §1

NC(=S)N/N=C/c1ncccc1N [PAN-811, 3-aminopyridine-2-carboxaldehyde thiosemicarbazone]
neuronal morphology ([1]; co- or post-treatment, 1.25-10 μM PAN-811, H/H and tPA conditions): preserved neuronal morphology
reduction of LDH reading as compared to no pre-treatment or control vehicle ([2]; pre-treated overnight with 2 μM PAN-811, insult 15 μM glutamate and 20 μg/ml tPA, 24 hours): about 11%
well tolerated dose ([3]; 46 courses of therapy): up to 105 mg/m^2
dose limiting toxicity ([3]; doses up to 105 mg/m^2): not identified
passage of the BBB [4]: will pass the BBB
neuroprotection (LDH readings) ([5]; 1.25 μM PAN-811, H/H and tPA): effective in significantly reducing LDH readings
protection (LDH) ([5]; 5 μM PAN-811 post-insult (H/H and tPA)): 51%
decrease of LDH reading ([5]; co-treated with 5 μM PAN-811 during H/H and tPA insult): 23%
dose dependence of protection ([5]; co-treatment or post-treatment, 1.25, 2.5, 5 and 10 μM, H/H and tPA): showed a dose response correlation

Cl.Cl.N=C(N)c1ccc(C=C2CCCCC(=Cc3ccc(C(=N)N)cc3)C2=O)cc1 [tPA-Stop™, 2,7-bis-(4-amidino-benzylidene)-cycloheptan-1-one dihydrochloride]
effect on alpha-amino-2,3-dihydro-5-methyl-3-oxo-4-isoxazole propanoic acid or kainate-mediated necrosis [6]: fails to modulate
effect on tPA-potentiated, NMDA-mediated, excitotoxic neuronal death [6]: effective in reducing

tPA: Recombinant tissue-type plasminogen activator, a thrombolytic-acting drug approved for ischemic stroke
morphology, neuronal cell death ([1]; H/H combined with 20 μg/ml tPA, by 17 hours post-insult): robust neuronal cell death
toxicity to neurons by LDH assay ([2]; 20 μg/ml tPA alone, 24 hours): not toxic
morphology of neurons [7]: neurons remained healthy
reduction in the MTS reading over the control [8]: did not cause any reduction
decrease of MTS reading [9]: 51%
enhancement in the LDH reading over control ([5]; H/H 6 hours combined with 20 μg/ml tPA): 3.3 fold

N[C@@H](CCC(=O)O)C(=O)O [glutamate, reference compound]
increase in LDH over the control ([2]; 15 μM glutamate, 20 μg/ml tPA, insult 24 hours): 4.4 fold
morphology of neurons [7]: strong neuronal cell death
reduction in the MTS reading over the control [8]: 13%
